Measured values published in patent US5631265A, “8-substituted tetrahydro-beta-carbolines” (Eli Lilly and Company, priority 1995, dated 1997).
Where two headings read alike, the source gives them in different places.

Assays:
5-HT2C receptor [1] = target: T1, 5-HT2C receptor (Rattus norvegicus, UniProt P08909); experiment: Radioligand binding, Rat 2C (Table I)
T1 sequence (P08909 33-460): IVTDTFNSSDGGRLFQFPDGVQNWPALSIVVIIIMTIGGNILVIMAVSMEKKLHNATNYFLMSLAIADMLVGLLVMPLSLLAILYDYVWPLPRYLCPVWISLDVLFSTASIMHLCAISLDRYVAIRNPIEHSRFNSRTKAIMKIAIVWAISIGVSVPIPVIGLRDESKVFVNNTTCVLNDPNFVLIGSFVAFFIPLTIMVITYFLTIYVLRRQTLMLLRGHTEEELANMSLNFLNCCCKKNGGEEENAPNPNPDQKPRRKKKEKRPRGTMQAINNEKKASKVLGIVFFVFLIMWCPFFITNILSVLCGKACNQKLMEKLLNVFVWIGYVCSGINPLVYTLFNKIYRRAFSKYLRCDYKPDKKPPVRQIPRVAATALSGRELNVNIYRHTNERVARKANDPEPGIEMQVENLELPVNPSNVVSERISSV
Method: (§1) [^3 H]5-HT binding studies. Binding assays were automated using a Biomek 1000 (Beckman instruments, Fullerton, Calif.) and were performed in triplicate in 0.8 ml total volume. Membrane suspension, 200 μl, (0.04-0.27 mg protein) and 200 μl of drug dilution in water were added to 400 μl of 67 mM Tris-HCl, pH 7.4, containing [^3 H]5-HT, pargyline, CaCl2, and L-ascorbic acid. Final concentrations of pargyline, CaCl2 and L-ascorbic acid were 10 μM, 3 mM and 0.1%, respectively. Tubes were incubated at 37° C. for 15 min or at 0° C. for 2 hours (binding equilibria were verified for both of these conditions), then rapidly filtered using a Brandel cell harvester (Model MB-48R; Brandel, Gaithersburg, Md.) through Whatman GF/B filters which had been presoaked in 0.5% polyethylenimine and precooled with ice-cold 50 mM Tris-HCl, pH 7.4. The filters were then washed rapidly four times with one ml ice-cold 50 mM Tris-HCl, pH 7.4. The amount of [^3 H]5-HT trapped on the filters was determined by liquid scintillation spectrometry (Ready Protein and Beckman automated using a Biomek 1000 (Beckman Instruments, Fullerton, Calif.) and were performed in triplicate in 0.8 ml total volume. Membrane suspension, 200 μl, (0.04-0.27 mg protein) and 200 μl of drug dilution in water were added to 400 μl of 67 mM Tris-HCl, pH 7.4, containing [^3 H]5-HT, pargyline, CaCl2, and L-ascorbic acid. Final concentrations of pargyline, CaCl2 and L-ascorbic acid were 10 μM, 3 mM and 0.1%, respectively. Tubes were incubated at 37° C. for 15 min or at 0° C. for 2 hours (binding equilibria were verified for both of these conditions), then rapidly filtered using a Brandel cell harvester (Model MB-48R; Brandel, Gaithersburg, Md.) through Whatman GF/B filters which had been presoaked in 0.5% polyethylenimine and precooled with ice-cold 50 mM Tris-HCl, pH 7.4. […]
(§2) Compounds of this invention were tested using the described in vitro assay. Results of the radioligand binding experiments are illustrated in Table I. The values reported in Table I are expressed as Ki calculated as described infra.

[2] = target: T2, cloned rat 5-HT2B receptor (Rattus norvegicus, UniProt P30994); experiment: Radioligand binding, [3H]5-HT, cloned rat 5-HT2B receptor (Table I)
T2 construct: expressed in transfected cells
T2 sequence (P30994 whole entry): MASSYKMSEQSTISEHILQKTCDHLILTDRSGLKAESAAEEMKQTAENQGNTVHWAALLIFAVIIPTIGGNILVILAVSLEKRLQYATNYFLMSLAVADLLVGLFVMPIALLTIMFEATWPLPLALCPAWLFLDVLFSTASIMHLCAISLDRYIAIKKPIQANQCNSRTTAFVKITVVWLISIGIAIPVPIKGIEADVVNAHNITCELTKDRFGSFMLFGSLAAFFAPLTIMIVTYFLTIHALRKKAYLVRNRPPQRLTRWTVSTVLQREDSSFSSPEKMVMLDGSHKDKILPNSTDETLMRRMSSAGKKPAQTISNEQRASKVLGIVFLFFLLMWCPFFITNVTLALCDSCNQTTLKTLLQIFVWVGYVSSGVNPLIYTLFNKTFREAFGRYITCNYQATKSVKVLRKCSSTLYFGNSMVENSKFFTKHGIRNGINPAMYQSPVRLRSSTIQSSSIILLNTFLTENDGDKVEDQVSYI
Method: Radioligand Binding Studies
Membrane preparation from transformed cells. Suspension cells expressing the cloned rat 5-HT2B receptor were harvested by centrifugation at 2,200 ×g for 15 min at 4° C. Kursar, J. D., D. L. Nelson, D. B. Wainscott, M. L. Cohen, and M. Baez, Mol. Pharmacol., 42: 549-557 (1992). Membranes for the binding assays were prepared by vortexing the pellet in 50 mM Tris-HCl, pH 7.4 (0.5×10^9 cells/30 ml). The tissue suspension was then centrifuged at 39,800 ×g for 10 min at 4° C. This procedure was repeated for a total of three washes, with a 10 minute incubation at 37° C. between the first and second wash. The final pellet was homogenized in 67 mM Tris-HCl, pH 7.4 (at 20-40 and 12.5 million cells/ml, original cell number, for cells expressing low and relatively high levels of the 5-HT2B receptor, respectively) using a Tissumizer (Tekmar, Cincinnati, Ohio), setting 65 for 15 seconds.
[^3 H]5-HT binding studies. Binding assays were automated using a Biomek 1000 (Beckman instruments, Fullerton, Calif.) and were performed in triplicate in 0.8 ml total volume. Membrane suspension, 200 μl, (0.04-0.27 mg protein) and 200 μl of drug dilution in water were added to 400 μl of 67 mM Tris-HCl, pH 7.4, containing [^3 H]5-HT, pargyline, CaCl2, and L-ascorbic acid. Final concentrations of pargyline, CaCl2 and L-ascorbic acid were 10 μM, 3 mM and 0.1%, respectively. Tubes were incubated at 37° C. for 15 min or at 0° C. for 2 hours (binding equilibria were verified for both of these conditions), then rapidly filtered using a Brandel cell harvester (Model MB-48R; Brandel, Gaithersburg, Md.) through Whatman GF/B filters which had been presoaked in 0.5% polyethylenimine and precooled with ice-cold 50 mM Tris-HCl, pH 7.4. The filters were then washed rapidly four times with one ml ice-cold 50 mM Tris-HCl, pH 7.4. The amount of [^3 H]5-HT trapped on the filters was determined by liquid scintillation spectrometry (Ready Protein and Beckman automated using a Biomek 1000 (Beckman Instruments, Fullerton, Calif.) and were performed in triplicate in 0.8 ml total volume. Membrane suspension, 200 μl, (0.04-0.27 mg protein) and 200 μl of drug dilution in water were added to 400 μl of 67 mM Tris-HCl, pH 7.4, containing [^3 H]5-HT, pargyline, CaCl2, and L-ascorbic acid. Final concentrations of pargyline, CaCl2 and L-ascorbic acid were 10 μM, 3 mM and 0.1%, respectively. Tubes were incubated at 37° C. for 15 min or at 0° C. for 2 hours (binding equilibria were verified for both of these conditions), then rapidly filtered using a Brandel cell harvester (Model MB-48R; Brandel, Gaithersburg, Md.) through Whatman GF/B filters which had been presoaked in 0.5% polyethylenimine and precooled with ice-cold 50 mM Tris-HCl, pH 7.4. The filters were then washed rapidly four times with one ml ice-cold 50 mM Tris-HCl, pH 7.4. The amount of [^3 H]5-HT trapped on the filters was determined by liquid scintillation spectrometry (Ready Protein and Beckman determined for best fit to a one-site or a two-site binding model using a partial […]. De Lean, A., A. A. Hancock, and R. J. Lefkowitz, Mol. Pharmacol., 21:5-16 (1981). The following equation was used for a one-site binding model, [formula] where Bound=amount of [^3 H]5-HT specifically bound, Bmax =maximum number of binding sites, Kd =equilibrium dissociation constant and [L]=free concentration of [^3 H]5-HT, or a two-site binding model, [formula] where Bound=amount of [^3 H]5-HT specifically bound, Bmax1 =maximum number of high affinity binding sites, Bmax2 =maximum number of low affinity binding sites, Kd1 =equilibrium dissociation constant for the high affinity site, Kd2 =equilibrium dissociation constant for the low affinity site and [L]=free concentration of [^3 H]5-HT. […]

5-HT2C receptor [3] = target: T3, 5-HT2C receptor (Homo sapiens, UniProt P28335); experiment: Radioligand binding, Human 2C (Table I)
T3 sequence (P28335 33-458): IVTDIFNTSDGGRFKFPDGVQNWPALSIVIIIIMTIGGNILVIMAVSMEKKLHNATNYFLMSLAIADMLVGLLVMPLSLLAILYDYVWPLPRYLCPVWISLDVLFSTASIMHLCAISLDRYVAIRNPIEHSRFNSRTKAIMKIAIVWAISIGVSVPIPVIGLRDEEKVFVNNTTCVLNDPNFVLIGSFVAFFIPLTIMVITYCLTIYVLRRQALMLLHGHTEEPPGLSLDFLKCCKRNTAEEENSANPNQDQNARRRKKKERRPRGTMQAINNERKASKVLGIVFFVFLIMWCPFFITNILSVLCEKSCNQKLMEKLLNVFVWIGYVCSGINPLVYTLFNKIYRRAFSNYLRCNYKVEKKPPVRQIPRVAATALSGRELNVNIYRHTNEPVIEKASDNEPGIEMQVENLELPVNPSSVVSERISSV
Method: as §1, §2

5-HT2B receptor = 5-HT2B receptor (Homo sapiens, UniProt P41595); experiment: Radioligand binding, Human 2B (Table I)
Sequence of 5-HT2B receptor (P41595 whole entry): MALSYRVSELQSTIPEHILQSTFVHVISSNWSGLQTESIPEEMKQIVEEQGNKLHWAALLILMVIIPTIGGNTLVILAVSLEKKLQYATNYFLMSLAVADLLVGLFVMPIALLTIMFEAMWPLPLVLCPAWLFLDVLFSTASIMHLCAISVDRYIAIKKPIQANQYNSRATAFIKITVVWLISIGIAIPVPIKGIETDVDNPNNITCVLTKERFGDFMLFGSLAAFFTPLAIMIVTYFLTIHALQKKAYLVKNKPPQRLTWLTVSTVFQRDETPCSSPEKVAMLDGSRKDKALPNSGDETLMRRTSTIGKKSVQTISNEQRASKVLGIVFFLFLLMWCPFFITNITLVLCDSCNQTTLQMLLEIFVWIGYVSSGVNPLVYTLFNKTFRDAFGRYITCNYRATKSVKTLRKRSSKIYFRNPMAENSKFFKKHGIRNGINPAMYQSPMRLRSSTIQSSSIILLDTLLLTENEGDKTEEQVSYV
Method: as §1, with “Tubes were incubated at 37° C. for 15 min or at 0° C. for 2 hours (binding equilibria were verified for both of these conditions), then rapidly filtered using a Brandel cell harvester (Model MB-48R; Brandel, Gaithersburg, Md.) through Whatman GF/B filters which had been presoaked in 0.5% polyethylenimine and precooled with ice-cold 50 mM Tris-HCl, pH 7.4. The filters were then washed rapidly four times with one ml ice-cold 50 mM Tris-HCl, pH 7.4.” left out

[4] = Rat 2C, Ki from IC50 by Cheng-Prusoff, read-out: Ki Rat 2C
[5] = cloned rat 5-HT2B receptor, [3H]5-HT, Ki from IC50 by Cheng-Prusoff, read-out: Ki Rat 2B
[6] = Human 2C, Ki from IC50 by Cheng-Prusoff, read-out: Ki Human 2C

In the case of `Cc1ccc2c3c([nH]c2c1Br)CNCC3` [Example 1, 7-methyl-8-bromo-1,2,3,4-tetrahydro-9H-pyrido[3,4b]-indole], the Ki (5-HT2C receptor [1]; [4]) is reported as 14.2 nM, the Ki [2, 5] is reported as 3.17 nM and the Ki (5-HT2C receptor [3]; [6]) is reported as 18.2 nM.

`Cc1ccc2c3c([nH]c2c1C)CNCC3` [Example 7, 7,8-dimethyl-1,2,3,4-tetrahydro-9H-pyrido[3,4b]-indole] showed a Ki [2, 5] of 15.8 nM.

Work on `Cc1cc(Br)c2[nH]c3c(c2c1)CCNC3` [Example 8, 6-methyl-8-bromo-1,2,3,4-tetrahydro-9H-pyrido[3,4b]-indole] yielded a Ki (5-HT2B receptor; Human 2B, Ki from IC50 by Cheng-Prusoff, read-out: Ki Human 2B) of 16.4 nM, a Ki (5-HT2C receptor [1]; [4]) of 34.9 nM and a Ki [2, 5] of 14 nM. For the same compound, the Ki (5-HT2C receptor [3]; [6]) was 38.6 nM.

For `CN1CCc2c([nH]c3ccc(O)cc23)C1` [Example 6], the Ki [2, 5] was 4610 nM.

`COc1cccc2c3c([nH]c12)CN(CC1CC1)CC3` [Example 5, 8-methoxy-2(N)-cyclopropylmethyl-1,2,3,4-tetrahydro-9H-pyrido[3,4b]-indole] was tested, and the Ki [2] was 97.5 nM.

`Fc1cc(F)c2[nH]c3c(c2c1)CCNC3` [Example 9, 6,8-difluoro-1,2,3,4-tetrahydro-9H-pyrido[3,4b]-indole] was tested, and the Ki [2] was 57.9 nM.

`CCCN1CCc2c([nH]c3c(OC)cccc23)C1` [Example 3, 8-methoxy-2(N)-propy1,2,3,4-tetrahydro-9H-pyrido[3,4b]-indole] gave a Ki [2] of 114 nM.

Work on `COc1cccc2c3c([nH]c12)CN(C)CC3` [Example 4, 8-methoxy-2(N)-methyl-1,2,3,4-tetrahydro-9H-pyrido[3,4b]-indole] yielded a Ki [2] of 71.7 nM.

Compound `Brc1cccc2c3c([nH]c12)CNCC3` [Example 10, 8-bromo-1,2,3,4-tetrahydro-9H-pyrido[3,4b]-indole] has a Ki (5-HT2B receptor) of 9.68 nM, a Ki (5-HT2C receptor [1]) of 22.4 nM and a Ki [2] of 6.2 nM. It also gave a Ki (5-HT2C receptor [3]) of 13.2 nM.

In the case of `COc1cccc2c3c([nH]c12)CNCC3` [Example 2, 8-methoxy-1,2,3,4-tetrahydro-9H-pyrido[3,4b]-indole], the Ki [2] is reported as 34.5 nM.
